Source: US20160368943A1, “SUBSTITUTED PURINE COMPOUNDS” (EPIZYME, INC., priority 2013, published 2016)
Read-outs that look alike come from different tables or passages of the source.

Columns and labels:
[1] = MDCK cell permeability, native cells; type: in vitro ADME; conditions: dog, Basolateral-to-apical
Experimental: Samples were taken from the donor and receiver chambers at 120 minutes. Each determination was performed in duplicate. Co-dosed lucifer yellow flux was also measured for each monolayer to ensure cell monolayers remained intact during the incubation. All samples were assayed by LC-MS/MS.

[2] = Hepatocyte stability, dog; type: in vitro ADME, Beagle dog
Experimental: (§1) Human, Beagle dog, Sprague-Dawley rat, and CD-1 mouse cryopreserved hepatocytes were obtained from XenoTech and stored at −150° C. until use. The hepatocytes were thawed and prepared according to the vendor's instructions, pooled into Krebs Henseleit buffer (KHB, pH 7.4), and kept on ice prior to initiating an experiment. […] The reaction mixture was incubated in a shaking water bath at 37° C. Aliquots of the incubation solutions were sampled at 0, 15, 30, 60, and 120 minutes. The reaction was immediately terminated by the addition of three volumes of ice-cold acetonitrile containing 0.1% formic acid and internal standards. After centrifugation at 1640×g for 10 minutes, the supernatants were transferred into HPLC vials, and the test compound was analyzed by LC-MS/MS. Positive controls, testosterone (20 μM) and 7-hydroxycoumarin (100 μM), were performed in parallel to confirm the enzyme activities of the hepatocytes used.
(§2) Experimental half-lives were transformed to the corresponding intrinsic clearance values and subsequently scaled to predicted in vivo clearance values, using the well-stirred model as previously described (Houston, Biochemical Pharmacology 47(9): 1469-1479, 1994; Obach, Drug Metabolism and Disposition 27(11): 1350-1359, 1999), with appropriate species-specific scaling factors (Barter et al., Current Drug Metabolism 8(1): 33-45, 2007).

[3] = Hepatocyte stability, rat; type: in vitro ADME, Sprague-Dawley rat
Experimental: as §1, §2

[4] = Liver microsome stability, human; type: in vitro ADME
Experimental: (§3) The final incubation volume was 50 μL. Control incubations were included for each species where 0.1 M phosphate buffer pH 7.4 was added instead of NADPH (minus NADPH). Two control compounds were included for each species. […] The control (minus NADPH) was incubated for 45 minutes only. The reactions were stopped by transferring 25 μL of incubate to 50 μL methanol at the appropriate time points. The incubation plates were centrifuged at 2,500 rpm for 20 minutes at 4° C. to aid protein precipitation. Experimental half-lives were transformed to the corresponding intrinsic clearance values and subsequently scaled to predicted in vivo clearance values, using the well-stirred model as previously described (Houston, Biochemical Pharmacology 47(9): 1469-1479, 1994; Obach, Drug Metabolism and Disposition 27(11): 1350-1359, 1999), with appropriate species-specific scaling factors (Barter et al., Current Drug Metabolism 8(1): 33-45, 2007).

[5] = Plasma protein binding by equilibrium dialysis, human; type: in vitro ADME; conditions: both sexes, pH 7.4, read-out: Plasma free fraction
Experimental: (§4) Plasma protein binding was assessed by equilibrium dialysis, utilizing the HT-dialysis cell format with a cellulose semi permeable membrane (molecular weight cut off of 5000 Da). Plasma was warmed to 37° C. and adjusted to pH 7.4 before use. Male Sprague-Dawley rat, male Beagle dog, male CD-1 mouse and mixed sex human plasma was used for the studies. A 5 μM test compound solution was prepared in isotonic phosphate buffer and rat, dog, mouse and human plasma (final DMSO concentration of 0.5%). The plasma-containing solution was introduced to one side of the membrane, and the plasma-free on the other. Incubations were performed for 2-16 hours in duplicate in order to allow the compound to reach equilibrium. Haloperidol was included as the control compound for each species. At the end of the equilibration time the cells were emptied. Following protein precipitation, the samples were centrifuged and analyzed by LC-MS/MS. The samples from the protein containing compartment were quantified using calibration standards prepared in plasma and the protein free compartments were quantified using calibration standards prepared in dialysis buffer.

[6] = Hepatocyte stability, human; type: in vitro ADME
Experimental: as §1, §2

[7] = Liver microsomes supplemented with UDPGA and alamethacin (glucuronidation); type: in vitro ADME
[8] = Liver microsome stability, rat; type: in vitro ADME
Experimental: as §3

[9] = Plasma protein binding by equilibrium dialysis, dog; type: in vitro ADME; conditions: male, beagle, pH 7.4, read-out: Plasma free fraction
Experimental: as §4

[10] = Liver microsome stability, mouse; type: in vitro ADME
Experimental: as §3

Plasma stability, mouse = type: in vitro ADME, CD-1 mouse; conditions: CD-1, pooled plasma, 37° C., read-out: Half-life in ex vivo blood plasma
Excerpt: Samples were quenched in methanol and analyzed by LC-MS/MS analysis.

[11] = Pharmacokinetic study in dog; type: in vivo, Beagle dog; conditions: 1 mg/kg
Experimental: IV doses were administered by a single intravenous infusion over 1 minute into the cephalic vein in a 10% ethanol and 90% saline vehicle. At designated time points (predose, 0.083, 0.25, 0.5, 1, 2, 4, 8 and 24 h p.d.), the animals were restrained manually, and approximately 0.5 mL blood per time point was collected from non-injected cephalic vein into pre-cold EDTA-K2 tubes. Blood samples were put on wet ice and centrifuged at 4° C. to obtain plasma within 15 minutes of sample collection. The levels of Compound A were quantitated in dog plasma by LC-MS/MS analysis. […] Typically, samples were injected onto an LC-MS/MS system using a Waters BEH Phenyl column. The aqueous mobile phase was water with 0.1% NH4OH (A), and the organic mobile phase was acetonitrile with 0.1% NH4OH (B). The gradient was as follows: 37% B for the first 0.2 min, increased to 44% B from 0.2 to 0.6 min, maintained at 44% B for 0.5 min, and decreased to 37% B within 0.05 min. The injection volume was 2 uL, and the total run time was 1.5 min with a flow rate of 0.6 mL/min. […] The ionization was conducted in the positive ion mode using the MRM transition [M+H]+m/z 563.5 parent ion to m/z 326.3 daughter ion, incorporating a turbo-ionspray interface. Eight to ten calibration standards were prepared in blank plasma of the relevant species providing a typical standard curve concentration range of 5-500 ng/mL. Pharmacokinetic parameters were calculated by noncompartmental methods using WinNonlin (version 5.3; Pharsight, St. Louis, Mo.). Parameters are presented as mean±S.D.

[12] = liver microsomes, pH 7.4, NADPH, 3 μM
[13] = male, plasma, Beagle dog, IV bolus

CC(C)N(C[C@H]1O[C@@H](n2cnc3c(N)ncnc32)[C@H](O)[C@@H]1O)[C@H]1C[C@@H](CCc2nc3cc(C(C)(C)C)ccc3[nH]2)C1 [Compound A, (2R,3R,4S,5R)-2-(6-amino-9H-purin-9-yl)-5-((((1r,3S)-3-(2-(5-(tert-butyl)-1H-benzo[d]imidazol-2-yl)ethyl)cyclobutyl)(isopropyl)amino)methyl)tetrahydrofuran-3,4-diol]
Papp B→A at 120 min, 10 uM [1]: 0.3 ×10⁻⁶ cm/s
Scaled Hepatic CL from hepatocytes [2]: 21 mL/min/kg
hepatocyte CLint at 3 μM ([2]; beagle, cryopreserved hepatocytes in suspension, pH 7.4, 3 μM): 14.9 µL/min/1e6 cells
Scaled Hepatic CL from hepatocytes [3]: 7 mL/min/kg
microsomal CLint at 3 μM [4, 12]: 88 µL/min/mg
Scaled Hepatic CL from liver microsomes ([4]; well-stirred model): 17 mL/min/kg
fraction unbound at 5 μM [5]: 0.125
Scaled Hepatic CL from hepatocytes [6]: <3 mL/min/kg
turnover (glucuronidation) [7]: no turnover was observed
microsomal CLint at 3 μM [8, 12]: 72 µL/min/mg
Scaled Hepatic CL from liver microsomes ([8]; well-stirred model): 45 mL/min/kg
fraction unbound at 5 μM [9]: 0.234
microsomal CLint at 3 μM [10, 12]: 150 µL/min/mg
Scaled Hepatic CL from liver microsomes ([10]; well-stirred model): 78 mL/min/kg
half-life at 1 μM (Plasma stability, mouse): > 2 h
CL ([11]; Beagle dog, IV bolus): 18.7 ± 1.7 mL/min/kg
clearance ([11]; male, beagle, dog, plasma, iv, Beagle dog, IV bolus): 19 mL/min/kg
Vd ([11]; male, beagle, dog, plasma, iv, Beagle dog, IV bolus, read-out: VDss): 2.44 L/kg
Vd ([11]; male, beagle, dog, plasma, iv, dog, read-out: Unbound VDss): 10.4 L/kg
AUC(0-inf) [11, 13]: 1.6 ± 0.15 µM·h
AUC(0-t) [11, 13]: 1.55 ± 0.16 µM·h
Cmax [11, 13]: 5.06 ± 0.6 µM
MRT [11, 13]: 2.17 ± 0.89 h
Tmax [11, 13]: 4.98 min
half-life [11, 13]: 13.6 h
